Results on seven substances are retold here after patent US20220280594A1, “APPLICATION OF POLYPEPTIDE OR DERIVATIVE THEREOF” (CHENGDU HUITAI BIOMEDICINE CO., LTD., priority 2019, published 2022).

Ends that are not written are not given here. PEG = not defined here

What all share (assay type): cell-based
Test [1] relates to human pancreatic cancer cells (PANC-1). Nature of the test: scratch assay, migration of PANC-1 cells. The following applies: PANC-1, 10 μM, 48 hours; control group 66.65 ± 3.37. Put shortly:
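PANC-1 monolayers were scratched, then cultured for 48 h with 10 μM test compound in 2% FBS medium, in three parallel wells per group against a PBS control. Migration rate (%) was calculated as (original minus current scratch width) / original width × 100, from imaged wells.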

For test [2], the system named is human breast cancer cells (MDA-MB-231). Nature of the test: scratch assay, migration of MDA-MB-231 cells. The following applies: MDA-MB-231, 10 μM, 48 hours; control group 36.19 ± 5.15. The procedure, abridged:
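MDA-MB-231 monolayers (1-2×10^5 cells/well) were scratched, then kept 48 h in medium with 2% FBS containing polypeptide at 10 μM, with a PBS control, in triplicate wells. Migration rate (%) was taken from scratch width: (original − current)/original ×100.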

The subject of test [3] is human pancreatic cancer cells (PANC-1). Nature of the test: transwell migration assay, PANC-1 cells. The settings on record: PANC-1 transwell migration, 10 μM, 24 hours; control group 360 ± 60. Put shortly: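 Serum-free PANC-1 cells placed in the upper transwell chamber with complete medium below; after 4-5 h, peptide added to the upper chamber at a final 10 μM. Migration ran 24 h at 37 °C; cells on the membrane underside were methanol-fixed, crystal violet-stained and counted by microscopy.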

For test [4], the system named is human colon cancer cells (HCT-116). Nature of the test: scratch assay, migration of HCT-116 cells. The settings on record: HCT-116, 10 μM, 48 hours; control group 47.78 ± 6.07. Put shortly:
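Confluent HCT-116 monolayers were scratched, washed and cultured 48 h in 2% FBS medium with peptide at 10 μM versus PBS control, triplicate wells. Migration rate (%) = (original minus current scratch width)/original width × 100, from at least 3 images per well.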

The test system of test [5] is human liver cancer cells (HepG2). Description: scratch assay, migration of HepG2 cells. The settings on record: HepG2, 10 μM, 48 hours; control group 71.01 ± 6.63. The procedure, abridged: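 HepG2 monolayers scratched, then cultured 48 h in 2% FBS medium with test polypeptides at 10 μM versus PBS control, triplicate wells. Migration rate (%) computed from original versus current scratch width in images.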

In test [6] the test system is human pancreatic cancer cells (PANC-1). Nature of the test: transwell invasion assay, PANC-1 cells. The following applies: PANC-1 transwell invasion, 10 μM, 24 hours; control group 727 ± 68. The procedure, abridged:
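Serum-free PANC-1 cells were seeded in matrigel-coated upper chambers with complete medium below. After 4-5 hours at 37° C., peptide was added at 10 μM final. Following 24 hours, invaded cells on the lower membrane surface were fixed, crystal violet-stained, imaged and counted against untreated controls.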

The subject of test [7] is human non-small cell lung cancer cells (A549). Description: scratch assay, migration of A549 cells. The settings on record: A549, 10 μM, 48 hours; control group 75.31 ± 8.19. The procedure, abridged: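 Confluent A549 monolayers in 24-well plates were scratched, washed with PBS, then cultured 48 h in 2% FBS medium with peptide at 10 μM or PBS control, triplicate wells. Scratch width measured from images; migration rate (%) = (original − current width)/original width × 100.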

The test system of test [8] is human breast cancer cells (MCF-7). Nature of the test: scratch assay, migration of MCF-7 cells. The following applies: MCF-7, 10 μM, 48 hours; control group 30.97 ± 1.79. The procedure, abridged:
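MCF-7 monolayers scratched, then cultured 48 hours in 2% FBS medium with test peptide at 10 μM versus PBS control, triplicate wells. Migration rate (%) = (original − current scratch width)/original width × 100, measured from images.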

Take “N48: SEQ ID NO: 1 with A7R, deletion of position 11 and position 18, PEG modification at the carboxyl terminal (YRVRFLRKENTQDAED-{PEG}; reading uncertain)”: the “Migration rate (%) (mean ± SD, P)” value in test [1] is listed as 20.60 ± 4.71,*** %; in test [2], 13.06 ± 3.2,** %; in test [4], 18.03 ± 4.62,** %; in test [5], 25.43 ± 5.00,*** %; in test [7] it was 22.04 ± 3.01,*** %; in test [8], 15.62 ± 2.70,* %. In test [3], the “Number of cells (mean ± SD, P), migrated cells” value is listed as 152 ± 18,***. Further, the “Number of cells (mean ± SD, P), invaded cells” value in test [6] is 149 ± 12,****.
As for “N49: SEQ ID NO: 1 with A7R, deletion of positions 1-2 and position 18, PEG modification at the carboxyl terminal (VRFLRKENVTQDAED-{PEG}; reading uncertain)”, the “Migration rate (%) (mean ± SD, P)” value in test [1] is listed as 17.71 ± 7.65,*** %; in test [2] it was 13.41 ± 3.12,** %; in test [4] it was 18.84 ± 2.99,** %; in test [5], 16.45 ± 5.88,*** %; in test [7], 27.20 ± 6.23,** %; in test [8], 7.29 ± 3.80,** %. The “Number of cells (mean ± SD, P), migrated cells” value in test [3] was 137 ± 29,***. For the same substance, the “Number of cells (mean ± SD, P), invaded cells” value in test [6] is listed as 141 ± 7,****.
For “N50: SEQ ID NO: 1 with N18R, addition of 2 amino acid at the carboxyl terminal, PEG modification at the amino terminal ({PEG}-YRVRFLAKENVTQDAEDRCT; reading uncertain)”, the “Migration rate (%) (mean ± SD, P)” value in test [1] was 14.92 ± 8.62,*** %; in test [2] it was 14.46 ± 5.73,** %; in test [4] it was 17.04 ± 4.96,** %; in test [5] it was 16.03 ± 4.37,*** %; in test [7] it was 57.74 ± 4.39,* %; in test [8], 6.83 ± 4.55,** %. Besides, the “Number of cells (mean ± SD, P), migrated cells” value in test [3] was 230 ± 11,**. Further, the “Number of cells (mean ± SD, P), invaded cells” value in test [6] is reported as 310 ± 30,***.
On to “N51: SEQ ID NO: 1 with A15R, one amino acid added at each terminal, PEG modification at the amino terminal ({PEG}-FYRVRFLAKENVTQDREDNC; reading uncertain)”, for which the “Migration rate (%) (mean ± SD, P)” value is 20.85 ± 8.10,*** % in test [1]; 14.5 ± 2.68,** % in test [2]; 16.11 ± 3.20,** % in test [4]; 28.61 ± 5.89,** % in test [5]; 53.59 ± 5.62,* % in test [7]; 8.56 ± 4.18,** % in test [8]. Also, in test [3], the “Number of cells (mean ± SD, P), migrated cells” value is listed as 214 ± 17,***. Moreover, the “Number of cells (mean ± SD, P), invaded cells” value in test [6] is listed as 282 ± 28,****.
Turning to “N52: SEQ ID NO: 1 with N18R, addition of two amino acids and PEG modification at the carboxyl terminal (YRVRFLAKENVTQDAEDRCT-{PEG}; reading uncertain)”, the “Migration rate (%) (mean ± SD, P)” value in test [1] is on record as 23.11 ± 4.27,*** %; in test [2], 13.19 ± 4.84,** %; in test [4] it was 18.71 ± 3.59,** %; in test [5], 15.39 ± 7.19,*** %; in test [7], 56.03 ± 4.21,* %; in test [8], 7.23 ± 2.41,** %. In test [3], the “Number of cells (mean ± SD, P), migrated cells” value was 153 ± 16,***. Moreover, in test [6], the “Number of cells (mean ± SD, P), invaded cells” value is 237 ± 27,****.
For “N53: SEQ ID NO: 1 with A15R, one amino acid added at each terminal, PEG modification at the carboxyl terminal (FYRVRFLAKENVTQDREDNC-{PEG}; reading uncertain)”, the “Migration rate (%) (mean ± SD, P)” value was 15.85 ± 7.32,*** % in test [1]; 18.05 ± 6.08,* % in test [2]; 14.42 ± 3.21,*** % in test [4]; 35.85 ± 4.32,** % in test [5]; 58.05 ± 3.60,* % in test [7]; 9.45 ± 2.39,** % in test [8]. For the same substance, in test [3], the “Number of cells (mean ± SD, P), migrated cells” value is listed as 131 ± 8,***. Besides, the “Number of cells (mean ± SD, P), invaded cells” value in test [6] is listed as 228 ± 25,****.
For “N54: SEQ ID NO: 1 with A7R, addition of two amino acids and PEG modification at the carboxyl terminal (YRVRFLRKENVTQDAEDNTC-{PEG}; reading uncertain)”, the “Migration rate (%) (mean ± SD, P)” value is recorded as 16.62 ± 5.73,*** % in test [1]; 13.37 ± 5.89,** % in test [2]; 26.50 ± 3.99,** % in test [4]; 46.62 ± 3.73,** % in test [5]; 54.66 ± 4.73,* % in test [7]; 16.52 ± 2.93,* % in test [8]. Moreover, the “Number of cells (mean ± SD, P), migrated cells” value in test [3] is recorded as 128 ± 19,***. In addition, in test [6], the “Number of cells (mean ± SD, P), invaded cells” value is given as 231 ± 26,****.
